Reference: patent US20230285377A1, “KCNT1 INHIBITORS AND METHODS OF USE” (Praxis Precision Medicines, Inc., priority 2020, published 2023)

Biological target: KCNT1 (KNa1.1, Slack) (Homo sapiens (Human), UniProt Q5JUK3)
Test: KCNT1-WT-Basal - Patch Clamp Assay
Type: cell-based
Conditions: tetracycline inducible HEK-TREX cell line; SyncroPatch 384PE automated patch clamp; step to 0 mV; room temperature
Procedure: Inhibition of KCNT1 (KNa1.1, Slack) was evaluated using a tetracycline inducible cell line (HEK-TREX). Currents were recorded using the SyncroPatch 384PE automated, patch clamp system. Pulse generation and data collection were performed with PatchController384 V1.3.0 and DataController384 V1.2.1 (Nanion Technologies). The access resistance and apparent membrane capacitance were estimated using built-in protocols. Current were recorded in perforated patch mode (10 µM escin) from a population of cells. The cells were lifted, triturated, and resuspended at 800,000 cells/ml. The cells were allowed to recover in the cell hotel prior to experimentation. Currents were recorded at room temperature. The external solution contained the following (in mM): NaCl 105, NMDG 40, KC1 4, MgC12 1, CaC12 5 and HEPES 10 (pH = 7.4, Osmolarity ~300 mOsm). The extracellular solution was used as the wash, reference and compound delivery solution. The internal solution contained the following (in mM): NaCl 70, KF 70, KC1 10, EGTA 5, HEPES 5 and Escin 0.01 (pH = 7.2, Osmolarity ~295 mOsm). Escin is made at a 5 mM stock in water, aliquoted, and stored at -20° C. The compound plate was created at 2x concentrated in the extracellular solution. The compound was diluted to 1:2 when added to the recording well. The amount of DMSO in the extracellular solution was held constant at the level used for the highest tested concentration. A holding potential of -80 mV with a 100 ms step to 0 mV was used. Mean current was measured during the step to 0 mV. […] The average mean current from 3 sweeps was calculated and the % inhibition of each compound was calculated. The % Inhibition as a function of the compound concentration was fit with a Hill equation to derive IC50, slope, min and max parameters. If KCNT1 inhibition was less than 50% at the highest tested concentration or if an IC50 could not be calculated, then a percent inhibition was reported in place of the IC50.
In this table, “A” indicates IC50 of less than or equal to 1 µM; “B” indicates inhibition of between 1 µM to 20 µM; and “C” indicates inhibition of greater than or equal to 20 µM.

Chain of KCNT1 (KNa1.1, Slack) (Q5JUK3 whole entry): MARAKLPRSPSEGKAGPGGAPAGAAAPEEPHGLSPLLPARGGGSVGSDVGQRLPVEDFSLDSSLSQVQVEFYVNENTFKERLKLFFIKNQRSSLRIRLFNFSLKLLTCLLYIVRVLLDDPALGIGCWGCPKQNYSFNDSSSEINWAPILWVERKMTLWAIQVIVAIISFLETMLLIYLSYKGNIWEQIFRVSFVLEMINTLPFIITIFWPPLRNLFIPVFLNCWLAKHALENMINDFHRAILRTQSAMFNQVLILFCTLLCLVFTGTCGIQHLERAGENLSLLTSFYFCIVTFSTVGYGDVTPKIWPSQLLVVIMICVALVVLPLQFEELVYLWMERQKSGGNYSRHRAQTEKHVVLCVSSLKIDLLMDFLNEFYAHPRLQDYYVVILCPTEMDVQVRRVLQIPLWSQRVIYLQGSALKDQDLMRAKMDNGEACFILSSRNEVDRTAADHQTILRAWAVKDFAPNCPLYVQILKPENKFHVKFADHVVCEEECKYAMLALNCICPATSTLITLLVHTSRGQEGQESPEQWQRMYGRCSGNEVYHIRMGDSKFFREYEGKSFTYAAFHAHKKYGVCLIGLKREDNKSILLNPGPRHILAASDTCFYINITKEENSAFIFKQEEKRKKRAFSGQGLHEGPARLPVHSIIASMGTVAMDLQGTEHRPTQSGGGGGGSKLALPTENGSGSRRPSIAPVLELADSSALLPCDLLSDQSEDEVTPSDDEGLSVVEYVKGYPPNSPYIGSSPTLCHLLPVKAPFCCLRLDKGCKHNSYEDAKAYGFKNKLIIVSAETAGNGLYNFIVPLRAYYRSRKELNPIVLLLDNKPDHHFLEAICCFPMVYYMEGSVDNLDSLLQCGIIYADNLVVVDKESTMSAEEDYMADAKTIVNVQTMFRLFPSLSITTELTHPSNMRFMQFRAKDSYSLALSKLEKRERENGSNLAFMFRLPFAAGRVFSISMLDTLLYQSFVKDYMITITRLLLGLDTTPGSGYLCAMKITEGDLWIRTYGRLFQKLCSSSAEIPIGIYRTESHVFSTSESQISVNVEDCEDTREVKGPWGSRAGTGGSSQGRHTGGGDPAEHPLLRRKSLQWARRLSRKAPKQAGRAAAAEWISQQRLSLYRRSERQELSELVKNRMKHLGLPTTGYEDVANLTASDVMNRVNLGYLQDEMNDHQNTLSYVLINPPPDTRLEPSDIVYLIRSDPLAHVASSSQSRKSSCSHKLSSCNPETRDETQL

IC50 [µM] | Structure (SMILES)
≤ 1 | CC(NC(=O)c1cc(C(F)(F)F)nn1C)c1nc(-c2ccnc(C(F)(F)F)c2)ns1 (centres unmarked) [Example 1, 1-methyl-3-(trifluoromethyl)-N-(1-(3-(2-(trifluoromethyl)pyridin-4-yl)-1,2,4-thiadiazol-5-yl)ethyl)-1H-pyrazole-5-carboxamide]
≥ 20 | C[C@@H](NC(=O)c1ccccc1)c1cc(-c2ccnc(C(F)(F)F)c2)no1 (single isomer, unassigned) [Example 22]
